Patent US11524951B2, “2-(2,4,5-substituted-anilino)pyrimidine compounds” (AstraZeneca AB, priority 2011, dated 2022)

Assays:
Format in all cases: cell-based
[1] = target: T1, Exon19 deletion EGFR (Homo sapiens, UniProt P00533, DEL746-750); assay: Exon19 deletion EGFR (activating single mutant) cellular phosphorylation assay; details: PC9 human lung cells (Exon 19 deletion EGFR); endogenous p-EGFR in cell lysates by ELISA; 2 h with compound; read-out: Assay 1 (IC50)
T1 construct: Assays to measure cellular phosphorylation of endogenous p-EGFR in cell lysates; endogenous in cells; host or cells: PC9 (human lung cell line)
T1 sequence (P00533 with tags, fused parts or gaps DEL746-750): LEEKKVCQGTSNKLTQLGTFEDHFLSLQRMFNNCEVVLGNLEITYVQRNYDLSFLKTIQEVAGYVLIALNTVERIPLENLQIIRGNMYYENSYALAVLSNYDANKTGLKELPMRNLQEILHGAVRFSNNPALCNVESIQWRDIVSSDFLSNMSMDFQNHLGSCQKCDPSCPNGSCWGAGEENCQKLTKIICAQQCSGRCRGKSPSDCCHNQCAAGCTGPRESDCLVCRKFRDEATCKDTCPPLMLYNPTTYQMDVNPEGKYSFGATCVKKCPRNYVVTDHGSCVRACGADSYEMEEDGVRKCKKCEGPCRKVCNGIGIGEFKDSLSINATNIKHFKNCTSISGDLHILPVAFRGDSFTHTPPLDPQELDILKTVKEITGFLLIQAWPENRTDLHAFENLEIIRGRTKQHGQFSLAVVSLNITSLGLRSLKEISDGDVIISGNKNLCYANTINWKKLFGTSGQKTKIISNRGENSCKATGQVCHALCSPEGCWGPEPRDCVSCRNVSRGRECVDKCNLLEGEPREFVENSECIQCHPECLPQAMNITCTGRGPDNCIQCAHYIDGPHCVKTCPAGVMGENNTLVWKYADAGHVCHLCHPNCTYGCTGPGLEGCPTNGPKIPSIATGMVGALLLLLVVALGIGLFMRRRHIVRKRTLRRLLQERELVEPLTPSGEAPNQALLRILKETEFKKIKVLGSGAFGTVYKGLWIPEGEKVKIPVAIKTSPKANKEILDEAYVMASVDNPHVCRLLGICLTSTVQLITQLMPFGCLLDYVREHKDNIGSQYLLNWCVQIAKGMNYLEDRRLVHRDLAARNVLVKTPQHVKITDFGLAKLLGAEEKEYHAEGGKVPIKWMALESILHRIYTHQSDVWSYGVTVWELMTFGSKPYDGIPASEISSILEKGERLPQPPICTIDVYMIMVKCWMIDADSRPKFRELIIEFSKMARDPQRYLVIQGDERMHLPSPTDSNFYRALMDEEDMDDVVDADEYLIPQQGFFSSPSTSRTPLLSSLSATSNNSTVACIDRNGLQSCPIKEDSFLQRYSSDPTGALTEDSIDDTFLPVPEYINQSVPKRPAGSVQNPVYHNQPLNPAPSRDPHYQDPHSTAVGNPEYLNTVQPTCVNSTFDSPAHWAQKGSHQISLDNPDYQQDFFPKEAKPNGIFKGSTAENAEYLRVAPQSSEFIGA

[2] = target: T2, L858R/T790M EGFR (Homo sapiens, UniProt P00533, L858R/T790M); assay: L858R/T790M EGFR (double mutant) cellular phosphorylation assay; details: NCI-H1975 human lung cells; endogenous p-EGFR in cell lysates by ELISA; 2 h with compound
T2 construct: Assays to measure cellular phosphorylation of endogenous p-EGFR in cell lysates; endogenous in cells; host or cells: NCI-H1975 (human lung cell line)
T2 sequence (P00533 25-1210 T790M/L858R): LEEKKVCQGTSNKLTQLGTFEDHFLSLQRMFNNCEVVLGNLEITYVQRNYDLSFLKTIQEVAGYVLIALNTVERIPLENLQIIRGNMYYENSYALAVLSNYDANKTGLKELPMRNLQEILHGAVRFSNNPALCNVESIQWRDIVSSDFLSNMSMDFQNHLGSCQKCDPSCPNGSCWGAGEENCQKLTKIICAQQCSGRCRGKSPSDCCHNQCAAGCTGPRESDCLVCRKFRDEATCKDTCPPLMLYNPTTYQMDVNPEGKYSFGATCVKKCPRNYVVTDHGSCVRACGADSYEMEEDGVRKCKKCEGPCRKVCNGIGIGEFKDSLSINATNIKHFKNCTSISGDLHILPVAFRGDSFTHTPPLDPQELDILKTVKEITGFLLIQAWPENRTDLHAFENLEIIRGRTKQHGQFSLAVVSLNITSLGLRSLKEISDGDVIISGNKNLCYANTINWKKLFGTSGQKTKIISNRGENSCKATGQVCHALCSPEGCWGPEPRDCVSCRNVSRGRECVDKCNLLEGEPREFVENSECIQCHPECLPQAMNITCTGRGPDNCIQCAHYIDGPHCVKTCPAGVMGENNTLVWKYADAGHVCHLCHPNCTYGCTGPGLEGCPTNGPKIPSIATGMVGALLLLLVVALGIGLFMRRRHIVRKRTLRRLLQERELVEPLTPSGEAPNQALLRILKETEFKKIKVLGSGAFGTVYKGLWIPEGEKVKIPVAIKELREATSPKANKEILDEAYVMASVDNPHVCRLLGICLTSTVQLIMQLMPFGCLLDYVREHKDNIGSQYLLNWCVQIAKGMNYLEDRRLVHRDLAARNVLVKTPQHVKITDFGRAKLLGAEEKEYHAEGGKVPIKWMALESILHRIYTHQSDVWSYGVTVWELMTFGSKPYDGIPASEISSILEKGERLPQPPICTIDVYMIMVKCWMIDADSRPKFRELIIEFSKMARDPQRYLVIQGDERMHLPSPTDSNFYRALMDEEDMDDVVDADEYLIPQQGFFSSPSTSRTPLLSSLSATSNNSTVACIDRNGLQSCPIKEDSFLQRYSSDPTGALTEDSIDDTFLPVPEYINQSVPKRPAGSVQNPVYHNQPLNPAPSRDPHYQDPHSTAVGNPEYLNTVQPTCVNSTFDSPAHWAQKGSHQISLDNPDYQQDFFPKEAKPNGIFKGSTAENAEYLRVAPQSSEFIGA

[3] = target: T3, Wild-type EGFR (Homo sapiens, UniProt P00533); assay: Wild-type EGFR cellular phosphorylation assay; details: LoVo human colon cells; endogenous p-EGFR in cell lysates by ELISA; 2 h with compound, then stimulated 100 ng/ml for 10 minutes; read-out: Assay 3 (IC50)
T3 construct: Assays to measure cellular phosphorylation of endogenous p-EGFR in cell lysates; endogenous in cells; host or cells: LoVo (human colon cell line)
T3 sequence (P00533 25-1210): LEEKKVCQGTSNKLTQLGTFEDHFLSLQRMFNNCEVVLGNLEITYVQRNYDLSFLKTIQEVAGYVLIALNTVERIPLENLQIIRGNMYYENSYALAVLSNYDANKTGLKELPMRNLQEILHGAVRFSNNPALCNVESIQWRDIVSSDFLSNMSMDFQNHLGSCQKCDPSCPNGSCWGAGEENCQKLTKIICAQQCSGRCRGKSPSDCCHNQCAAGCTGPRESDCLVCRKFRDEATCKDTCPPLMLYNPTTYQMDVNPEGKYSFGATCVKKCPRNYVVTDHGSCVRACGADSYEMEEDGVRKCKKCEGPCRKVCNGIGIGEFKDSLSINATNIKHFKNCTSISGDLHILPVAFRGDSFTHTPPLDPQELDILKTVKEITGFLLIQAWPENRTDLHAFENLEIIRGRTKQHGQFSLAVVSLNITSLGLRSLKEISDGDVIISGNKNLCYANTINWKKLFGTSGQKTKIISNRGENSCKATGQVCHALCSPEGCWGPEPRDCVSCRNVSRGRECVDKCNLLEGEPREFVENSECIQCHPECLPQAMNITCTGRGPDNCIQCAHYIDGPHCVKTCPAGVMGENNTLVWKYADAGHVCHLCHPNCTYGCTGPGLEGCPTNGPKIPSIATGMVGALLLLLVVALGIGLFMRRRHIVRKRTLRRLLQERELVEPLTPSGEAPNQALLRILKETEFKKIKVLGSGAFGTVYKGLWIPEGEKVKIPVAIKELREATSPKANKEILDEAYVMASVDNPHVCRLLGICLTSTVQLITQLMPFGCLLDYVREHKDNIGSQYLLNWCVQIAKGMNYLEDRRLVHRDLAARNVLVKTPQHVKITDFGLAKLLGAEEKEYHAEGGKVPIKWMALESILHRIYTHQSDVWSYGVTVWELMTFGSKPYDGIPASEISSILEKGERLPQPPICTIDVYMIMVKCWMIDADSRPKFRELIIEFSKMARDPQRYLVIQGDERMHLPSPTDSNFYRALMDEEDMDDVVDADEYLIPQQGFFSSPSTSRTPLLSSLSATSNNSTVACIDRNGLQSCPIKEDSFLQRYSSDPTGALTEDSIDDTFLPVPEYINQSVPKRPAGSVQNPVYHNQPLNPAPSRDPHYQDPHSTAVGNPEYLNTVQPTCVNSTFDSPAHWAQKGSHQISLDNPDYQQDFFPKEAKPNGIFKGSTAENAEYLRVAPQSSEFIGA

Row | SMILES | IC50 [1] | IC50 [2] | IC50 [3]
1 | C=CC(=O)Nc1cc(Nc2nccc(-c3cnn4c3CCCC4)n2)c(OC)cc1N1CC(N(C)C)C1 [Example 46, N-(2-{3-Dimethylaminoazetidin-1-yl}-4-methoxy-5-{[4-(4,5,6,7-tetrahydropyrazolo[1,5-a]pyridin-3-yl)pyrimidin-2-yl]amino}phenyl)prop-2-enamide] | 0.129 µM | 0.0929 µM | 7.09 µM
2 | C=CC(=O)Nc1cc(Nc2ncc(C)c(-c3cnn4ccccc34)n2)c(OC)cc1C1=CCN(C)CC1 [Example 1, N-{4-Methoxy-2-[1-methyl-3,6-dihydro-2H-pyridin-4-yl]-5-[(5-methyl-4-pyrazolo[1,5-a]pyridin-3-ylpyrimidin-2-yl)amino]phenyl}prop-2-enamide] | 0.00761 µM | 0.00496 µM | 0.474 µM
